Results published in patent US9145415B2, “Nitrogen-containing heterocyclic compound or salt thereof” (FUJIFILM Corporation, priority 2012, dated 2015).
Read-outs that look alike come from different tables or passages of the source.

What was measured:
[1] = system: Molm-13 cells; test: Leukemia cell proliferation inhibition test (ATPlite), Molm-13; assay type: cell-based; settings: Homo sapiens, read-out: MOLM13 cell proliferation inhibition effect
In short: (§1)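 Luminescent ATP read-out (firefly luciferase) used as a total cell count after 72 h compound exposure at 37° C, 5% CO2. Cells: 10,000/well in RPMI + 10% FBS. GI50 = 50% inhibition relative to 0.1% DMSO, from a sigmoid dose-response fit; duplicates.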

[2] = target: T1, human FLT3 protein (FLT3 (WT)) (Homo sapiens, UniProt P36888); test: FLT3 inhibition test (FLT3 enzyme inhibition, time-resolved fluorescence of substrate peptide phosphorylation); assay type: biochemical; settings: read-out: FLT3 (WT) enzyme inhibition activity
T1 construct: human FLT3 protein (intracellular region, 564 to 993 aa); GST; purchased Carna Biosciences; host or cells: baculovirus expression system
T1 sequence (P36888 564-993): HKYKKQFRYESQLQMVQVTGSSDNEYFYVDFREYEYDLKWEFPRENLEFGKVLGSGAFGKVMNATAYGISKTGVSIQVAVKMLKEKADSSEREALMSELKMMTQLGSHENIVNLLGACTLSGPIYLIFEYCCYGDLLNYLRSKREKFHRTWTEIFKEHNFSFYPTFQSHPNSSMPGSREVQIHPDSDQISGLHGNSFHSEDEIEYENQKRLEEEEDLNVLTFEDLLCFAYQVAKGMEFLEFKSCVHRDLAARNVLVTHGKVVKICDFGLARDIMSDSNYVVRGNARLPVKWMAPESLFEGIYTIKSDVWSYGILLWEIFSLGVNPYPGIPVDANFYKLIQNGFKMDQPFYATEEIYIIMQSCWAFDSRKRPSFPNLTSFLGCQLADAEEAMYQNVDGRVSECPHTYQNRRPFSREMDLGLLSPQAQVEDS
In short: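 Wild-type human FLT3 (1.2 μg) pre-incubated with compound 15 min at 25° C in 100 mM HEPES pH 7.5, 10 mM MgCl2, 25 mM NaCl, 1 mM DTT. Reaction started with substrate peptide and ATP (final 50 μM), run 30 min at 25° C; phosphorylation read by time-resolved fluorescence.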

[3] = system: MV4-11 cells; test: Leukemia cell proliferation inhibition test (ATPlite), MV4-11; assay type: cell-based; settings: Homo sapiens, read-out: MV4-11 cell proliferation inhibition effect
In short: as §1

[4] = MOLM-13, 72 h, Molm-13, 72 hours culture, ATPlite, GI50 per method
[5] = GST-fused human FLT3 (564 to 993 aa), ATP 50 μM
[6] = MV4-11, 72 h, MV4-11, 72 hours culture, ATPlite, GI50 per method

Structure (SMILES) | IC50 [1, 4] | IC50 [2, 5] | IC50 [3, 6] | IC50 ([1]; MOLM-13, MOLM13 cell) | IC50 ([2]; FLT3 (WT)) | IC50 ([3]; MV4-11, MV4-11 cell)
C=CC(=O)N1CCC(NC(=O)c2cnc(NCCc3ccncc3)nc2NCCC)C1 (stereo not drawn) [Compound 6-16] | 10 to 100 nM | 10 to 100 nM | 100 to 1000 nM |  |  | 
CCCNc1nc(Nc2ccc(C#N)cc2)ncc1C#CC(C)(C)CCNC(=O)[C@H](C)N(C)C(=O)/C=C/CN(C)C [Compound 9-26] | < 10 nM | < 10 nM | < 10 nM |  |  | 
CN(C)C/C=C/C(=O)N(C)CC(=O)NCCCC#Cc1cnc(Nc2ccc(F)cc2)nc1NCC1CCOCC1 [Compound 10-18] | < 10 nM | < 10 nM | < 10 nM |  |  | 
C[C@@H](C(=O)N[C@H]1CCC[C@@H](C#Cc2cnc(Nc3ccc(C#N)cc3)nc2NC2CC2)C1)N(C)C(=O)/C=C/CN(C)C [Compound 7-35] | < 10 nM | < 10 nM | < 10 nM |  |  | 
COCCCNc1nc(Nc2ccnc(OC)c2)ncc1C#CCCCNC(=O)[C@@H]1C[C@H](O)CN1C(=O)/C=C/CN(C)C [Compound 9-33] | < 10 nM | < 10 nM | < 10 nM |  |  | 
CCCNc1nc(Nc2ccc(C#N)cc2)ncc1C#CCCCNC(=O)CNC(=O)/C=C/CN(C)C [Compound 7-57] | < 10 nM | < 10 nM | < 10 nM |  |  | 
CCCNc1nc(NCCc2ccncc2)ncc1C(=O)Nc1cccc(NC(=O)C(C)(C)NC(=O)/C=C/CN(C)C)c1 [Compound 2-11] | 10 to 100 nM | < 10 nM | 10 to 100 nM |  |  | 
C[C@@H](C(=O)NCCCC#Cc1cnc(Nc2cccc(C#N)c2)nc1N1CCOCC1)N(C)C(=O)/C=C/CN(C)C [Compound 9-2] | 10 to 100 nM | < 10 nM | 10 to 100 nM |  |  | 
CCCNc1nc(Nc2ccc(C#N)cc2)ncc1C#CCCCNC(=O)[C@H](COC)N(C)C(=O)/C=C/CN(C)C [Compound 7-55] | < 10 nM | < 10 nM | < 10 nM |  |  | 
C=CC(=O)Nc1cc(NC(=O)c2cnc(NCCc3ccncc3)nc2NCCC)cc(C(F)(F)F)c1 [Compound 2-28] | 100 to 1000 nM | 100 to 1000 nM | 100 to 1000 nM |  |  | 
C=CC(=O)NCC(=O)Nc1cc(NC(=O)c2cnc(NCCc3ccncc3)nc2NCCC)c(C)cc1C [Compound 2-6] | 10 to 100 nM | 10 to 100 nM | 10 to 100 nM |  |  | 
CCCNc1nc(Nc2cncc(F)c2)ncc1C#CC(C)(C)CCNC(=O)[C@H](C)N(C)C(=O)/C=C/CN(C)C [Compound 9-21] | 10 to 100 nM | < 10 nM | < 10 nM |  |  | 

Second part, the molecule after the results:

IC50 [1, 4] | IC50 [2, 5] | IC50 [3, 6] | IC50 ([1]; MOLM-13, MOLM13 cell) | IC50 ([2]; FLT3 (WT)) | IC50 ([3]; MV4-11, MV4-11 cell) | Structure (SMILES)
10 to 100 nM | < 10 nM | 10 to 100 nM |  |  |  | CCCNc1cc(Nc2ccc(C#N)cc2)ncc1C#CCCCNC(=O)[C@H](C)N(C)C(=O)/C=C/CN(C)C [Compound 18-1, (S,E)-N-(1-((5-(6-((4-cyanophenyl)amino)-4-(propylamino)pyridin-3-yl)-4-pentyn-1-yl)amino)-1-oxopropan-2-yl)-4-(dimethylamino)-N-methyl-2-butenamide]
10 to 100 nM | < 10 nM | 10 to 100 nM |  |  |  | CCCNc1nc(Nc2cnc(NC)c(F)c2)ncc1C#CCCCNC(=O)[C@H](C)N(C)C(=O)/C=C/CN(C)C [Compound 21-14]
< 10 nM | < 10 nM | < 10 nM |  |  |  | CNc1ncc(C#C[C@H]2C[C@@H](NC(=O)[C@H](C)N(C)C(=O)/C=C/CN(C)C)C2)c(Nc2ccc(OC)nc2)n1 [Compound 13-22]
 |  |  | < 10 nM | < 10 nM | < 10 nM | CCCNc1nc(Nc2ccc3c(OC)nn(C)c3c2)ncc1C#CCCCNC(=O)[C@@H]1CCCN1C(=O)/C=C/CN(C)C [Compound 22-42]
 |  |  | < 10 nM | < 10 nM | < 10 nM | CCCNc1nc(Nc2ccc3cnn(C)c3c2)ncc1C#CCCCNC(=O)[C@@H]1CCCN1C(=O)/C=C/CN(C)C [Compound 22-32]
 |  |  | < 10 nM | < 10 nM | < 10 nM | CCCNc1nc(Nc2cnc3c(c2)c(C)nn3C)ncc1C#CCCCNC(=O)[C@H](C)N(C)C(=O)/C=C/CN(C)C [Compound 22-28]
 |  |  | < 10 nM | < 10 nM | < 10 nM | CCCNc1nc(Nc2cnc3c(c2)c(OC)nn3C)ncc1C#CCCCNC(=O)[C@H](C)N(C)C(=O)/C=C/CN(C)C [Compound 22-29]
